Where only a bound is given, the exact number is not on record here.

The record followed here is US20240398980A1, “NUCLEIC ACID-CONJUGATED POLYMERIC NANOPARTICLES AND METHODS OF USE” (The Brigham and Women's Hospital, Inc., priority 2021, published 2024).

Series [1] relates to interferon regulatory factor (IRF)3 activity. Kind of series: IRF3 reporter activity in THP-1 Dual cells (QUANTI-Luc). To be noted: for IRF and NF-kB activation compared with 2.3cGAMP: THP-1 reporter cell line, FIG. 30. Type of series: cell-based, Human. Here is the method:
(§1) In vitro evaluation of CDN-NP activity: Human monocyte THP-1 Dual™ cells, THP-1 Dual™ KO-STING cells, RAW-Lucia™ ISG cells and RAW-Lucia™ ISG KO-STING cells were seeded in 96-well plates at 1×10^5 cells per well and incubated with the CDN-NP or free CDN at CDN concentrations ranging from 0-500 nM. At 24 h post treatment, interferon regulatory factor (IRF)3 activity was examined using the QUANTI-Luc™ reagent (InvivoGen) and NF-κB activity (only THP-1 Dual™ cells) was determined using the QUANTI-Blue™ reagent (InvivoGen) according to the manufacturer's instructions.

In a further series the test system is IRF response. Kind of series: IRF reporter response in RAW-Lucia ISG cells. Format: cell-based, murine. Here is the method: as §1
The test system of series [2] is bone-marrow derived macrophages (BMDMs). Briefly: Primary immune cell activation, flow cytometry. Type of series: cell-based, C57BL/6 mice. Here is the method: BMDC and BMDM isolation: The tibias and femurs of female wild type or goldenticket C57BL/6 mice (aged 8-12 weeks) were isolated and flushed to harvest bone marrow and to obtain a progenitor cell population. To generate BMDMs, 4-6×10^6 bone marrow cells were cultured in non-tissue culture treated T175 flasks with 25 mL of DMEM/F12 supplemented with 10% (v/v) FBS, 1% (v/v) P/S, 5% (v/v) GlutaMAX and recombinant murine macrophage-colony-stimulating factor (M-CSF, 20 ng/mL). The flasks were supplemented with additional medium on day 3 and day 6. To generate BMDCs, 2×10^6 bone marrow cells were added to non-tissue culture-treated petri dishes and cultured in 10 mL of RPMI-1640 supplemented with 10% (v/v) FBS, 1% (v/v) and recombinant murine granulocyte-macrophage colony-stimulating factor (GM-CSF, 20 ng/mL), 10 mL more of which was added on day 3. […]
Assessment of primary immune cell activation: BMDCs or BMDMs were seeded in 24-well plates at 2×10^5 cells per well and incubated with the CDN-NP or free CDN at equal CDN concentrations ranging from 1-100 nM. […] After 24 hours, the supernatant was removed and cells were then collected, washed, stained, fixed, and analyzed by flow cytometry. […] In addition, IFN-0, IL-6, and TNF-α were analyzed from the supernatant using a custom Legendplex™ panel (BioLegend) as per the manufacturer's instructions.
For orientation: Flow cytometry measures light scatter and fluorescence of single cells or particles in a stream.

Series [3] in a line: Pharmacokinetics in plasma after i.v. administration (LC-MS-MS and fluorescence). Type of series: in vivo, C57BL/6 mice. The following applies: 15 min after i.v. Here is the method:
Pharmacokinetics of CDN-NPs: Non-tumor bearing 6-8-week-old female C57BL/6 mice were injected i.v. (100 μL per mouse) with fluorescent CDN-NPs and whole blood was collected 0.25, 0.5, 1, 3, 6, and 24 h post injection in Eppendorf tubes containing heparin though submandibular bleed (for early time points) or cardiac puncture (for late time points). Plasma was obtained by centrifugation for 20 mins at 10000×g. Fluorescent CDN-NPs were quantified using a 640 nm excitation and 680 emission wavelength by plate reader and CDN was also quantified by LC-MS/MS.

Another series deals with B16-F10 tumors. Briefly: In vivo therapeutic efficacy, B16-F10 melanoma. More on the design: species or system mice. To be noted: B16-F10, 0.5 μg CDN i.v. x3, 4 d apart. Here is the method:
In vivo therapeutic efficacy: B16-F10, 4T1, and CT-26 cells were injected subcutaneously into the right flank of 6-8-week-old female mice (of the appropriate background for the cell type) in 100 μL HBSS at densities of 5×10^5, 1×10^6, and 1×10^6 cells/injection, respectively. Approximately 7 days post tumor inoculation (˜50 mm^3), mice were subjected to intravenous injection (100 μL) of free CDN or CDN-NP at a CDN dose of 0.5 μg. Mice were injected 3 times with treatments spaced 4 d apart. Groups receiving checkpoint blockade were injected intraperitoneally 24 h post systemic administration with 100 μg anti-PD-1 (clone RMP1.14, Bio X Cell). The tumor size was measured every other day via caliper measurements and the tumor volume calculated using the equation V=L×W×H×(π/6). Body weight was measured contemporaneously with tumor volume.

Series [4] relates to immune cell populations in the TME, tdLN, and spleen. Kind of series: Immunophenotyping by flow cytometry in B16-F10 tumor-bearing mice. Format: in vivo, C57BL6/J mice. Here is the method:
Immunophenotyping analysis: Subcutaneous B16-F10 tumors were established in female C57BL6/J mice (6-8 weeks old), as previously described. The treatment groups were: PBS (untreated control), aPD-1 mAb, free CDN, free CDN with aPD-1 mAb, CDN-NPs, and CDN NPs with aPD-1 mAb. CDN formulations (free drug or NP, 0.5 μg CDN) were administered intravenously and aPD-1 mAb (100 μg) was administered intraperitoneally 24 h after CDN treatment. Dendritic cells and macrophages were assessed 48 h after treatment and T cells were analyzed 7 days post-treatment. Tumors were harvested, chopped, and digested in a solution of HBSS supplemented with collagenase I, II, and IV (100 ng/mL) and DNase I […] for 2 h at 37° C. TdLNs and spleens were harvested and mechanically dissociated. Single cell suspensions of tumors, tdLNs, and spleens were filtered through a 40 µm nylon cell strainer. Spleen and tumor cells were further treated with ACK Lysing Buffer (Gibco). Cells were washed, filtered through a 40 μm nylon cell strainer, and counted. For intracellular IFN-γ cytokine analysis, 1×10^6 cells were seeded in a 24-well plate in DMEM containing 10% (v/v) FBS and supplemented with PMA/ionomycin/Brefeldin A cocktail (BioLegend). After 4 h, the cells were washed and stained in 100 μL cell staining buffer (BioLegend). Intracellular staining was performed using an intracellular staining permeabilization wash buffer (BioLegend) The following anti-mouse antibodies were used for flow cytometry were purchased from BioLegend: CD45 APC-Cy7 (clone 30-F11), NK-1.1 BV710 (clone PK136), IFN-γ BV421 (clone XMG1.2), CD279 (PD-1) FITC (clone 29F.1A12), CD45 BV785 (clone 30-F11), CD11b BV421 (clone M1/70), Ly-6C APC-Cy7 (clone HK1.4), Ly-6G BV661 (clone 1A8), CD8a BV421 (clone 53-6.7), CD86 BV510 (clone GL-1), CD80 BV711 (clone 16-10A1), CD206 PE (clone C068C2), MHCII BV605 (clone M5/114.15.2), CD11c APC (clone N418), Siglec H PE (clone 551), and CD44 BV786 (clone IM7).
The following anti-mouse antibodies were purchased from BD Biosciences: CD3 BB700 (clone 17A2), CD4 BUV395 (clone GK1.5), CD8a BUV737 (clone 53-6.7), F4/80 BUV395 (clone T45-2342), CD103 BUV395 (clone M290), CD80 BUV737 (clone 16-10A1), ki67 BV510 (clone B56), CD69 BV605 (clone H1.2F3), and CD62L PE-CF594 (clone MEL-14). Live cells were gated using LIVE/DEAD™ (Thermo Fisher) aqua (cat. no. L34966), green (cat. no. L34970), or near-IR (cat. no. L34976). Stained cells were analyzed by flow cytometry using a BD LSRFortessa™ flow cytometer (BD Biosciences) and all data were analyzed using FlowJo software (FlowJo LLC).

Where [5] appears, read: tdLN, 7 d after single treatment.

For `CC(C)[C@H](NC(=O)CCCCCN1C(=O)C=CC1=O)C(=O)N[C@@H](C)C(=O)Nc1ccc(COC(=O)N(C)Cc2ccccc2C(=O)Nc2nc3c(ncn3[C@@H]3O[C@@H]4CO[P@@](=O)(S)O[C@H]5C[C@H](Oc6ccncn6)C[C@@H]5CO[P@@](=O)(S)O[C@@H]3[C@@H]4O)c(=O)[nH]2)cc1` [CDN-linker, 4-{[(2S)-2-{[(2S)-2-{[6-(2,5-Dioxo-2,5-dihydro-1H-pyrrol-1 yl)hexanoyl]amino}-3-methylbutanoyl]amino}propanoyl]amino}benzyl [2-({9[(2R,5R,7R,8R,10R,12aR,14R,15aS,16R)-16-hydroxy-2,10-dioxido-14-(pyrimidin-4-yloxy)-2,10-disulfanyldecahydro-5,8-methanocyclopenta[1][1,3,6,9,11,2,10]Pentaoxadiphosphacyclotetradecin-7-yl]-6-oxo-6,9-dihydro-1H-purin-2-yl}carbamoyl)benzyl]methylcarbamate], the “IRF and NF-kB activation compared with 2.3cGAMP” value in series [1] was “higher IRF and NF-kB activation than 2.3cGAMP”.

For orientation: EC50 means the concentration at which the effect is half-maximal. As for `Nc1nc2c(ncn2[C@@H]2O[C@@H]3CO[P@@](=O)(S)O[C@H]4C[C@H](Oc5ccncn5)C[C@@H]4CO[P@@](=O)(S)O[C@@H]2[C@@H]3O)c(=O)[nH]1` [free CDN, 2-Amino-9-[(2R,5R,7R,8R,10R,12aR,14R,15aS,16R)-16-hydroxy-2,10-dioxido 14-(pyrimidin-4-yloxy)-2,10-disulfanyldecahydro-5,8 methanocyclopenta[1][1,3,6,9,11,2,10]pentaoxadiphosphacyclotetradecin-7-yl]-1,9-dihydro-6H-purin-6-one], the half-maximal effective concentration (EC50) in series [1] (THP-1 Dual cells, 24 h, read-out: EC50 IRF3 activation) stood at 1150 nM. In addition, in series [1], the “IRF and NF-kB activation compared with 2.3cGAMP” value was “higher IRF and NF-kB activation than 2.3cGAMP”. Besides, the EC50 with IRF response is more than 1000 nM. The “dose required to achieve the same degree of CD86 upregulation (15-fold)” value in series [2] was 100 nM. The “CDN (nM) in plasma” value in series [3] is reported as less than 5 nM. In addition, the “CDN (nM) in plasma” value in series [3] (listed as free CDNs) is reported as less than 5 nM. In the series with B16-F10 tumors, the “tumor growth and survival” value is “only a modest suppression of tumor growth and no increase in survival”. In addition, in series [4] (48 h after i.v., B16-F10), the “CD86 expression on DCs in the spleen” value was found to be 8.4±1.3%. Moreover, in series [4] (7 d, ex vivo restimulation), the “proportion of CD4+ T cells secreting IFN-γ in the TME” value is recorded as 4.0±1.0% and the “proportion of CD8+ T cells secreting IFN-γ in the TME” value was 15.7±3.5%. In series [4] (setting [5]), the “CD4+ central memory T cells (TCM)” value worked out at 6.2±0.4% and the “CD4+ effector memory T cells (TEM)” value was found to be 5.3±0.8%.
